Assay results from patent publication US20050271736A1, “Pyrithione compound and microcapsule using the same” (Fuji Photo Film Co., Ltd., priority 2004, published 2005).

Test: Measurement of photo-decomposability of the compound in ethyl acetate solution (absorbance before/after UV exposure)
Type: physicochemical
Settings: 5.0×10^−5 mol/L in ethyl acetate
Description: The absorbance thereof was measured with an absorption photometer (Multichannel Detector PMA 11, trade name, manufactured by Hamamatsu Photonics K.K.). […] After this solution was exposed for 20 seconds by means of a fluorescent lamp of 23 watts having the central wavelength of light emission at 365 nm, which was placed at a distance of 45 mm, the absorbance thereof was measured in the same manner as the above.

With `OCCCCCCOc1cccn(OCCCCCCO)c1=S` [I-1] the “absorbance at 370 nm before exposure” value (1-cm quartz cell, before exposure) was 0.64 and the “absorbance at 370 nm after exposure” value (exposed 20 seconds, 23 W fluorescent lamp, central wavelength 365 nm, distance 45 mm) was 0.15.
